Measurements taken from patent publication US11524960B2, “Heterobicyclic inhibitors of MAT2A and methods of use for treating cancer” (AGIOS PHARMACEUTICALS, INC., priority 2018, dated 2022).

What was measured:
HCT116 MTAP+/+ = test: Inhibition of cellular proliferation (Cell Titer Glo), HCT116 MTAP+/+; format: cell-based, human; conditions: Homo sapiens, HCT-116, 96 h, 4 days, IC50 score, read-out: 4 Day Relative Growth Inhibition (MTAP +/+; Example 277)
Outline: (§1)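 Isogenic HCT116 lines, MTAP+/+ and MTAP−/−, treated 24 h after plating with 10-point 3-fold compound dilutions including DMSO only, then grown 4 days at 37 °C/5% CO2. Cell Titer Glo ATP luminescence, blank-subtracted and normalised to 0.2% DMSO control, gave percent change in proliferation versus log concentration.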

MAT2A homodimer = target: T1, MAT2A homodimer (Homo sapiens, UniProt P31153); test: Biochemical assay: inhibition of MAT2A (phosphate release, PiColorLock Gold); conditions: MAT2A IC50 score; read-out: Enzyme Inhibition (Example 275)
T1 construct: inferred from Ni sepharose purification and imidazole elution; made in house; host or cells: Sf9 insect cells, recombinant baculovirus (Bac to Bac, pFASTBAC1)
Outline: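 Baculovirus/Sf9-expressed, Ni-purified MAT2A at 4 µg/mL was preincubated with compound for 60 min at 25 °C in 50 mM Tris pH 8.0, 50 mM KCl, 15 mM MgCl2, 0.3 mM EDTA, 0.005% BSA. Substrate mix (500 μM ATP, 400 μM L-methionine) was added and the reaction ran 60 min at 25 °C. Phosphate released stoichiometrically with SAM was measured colorimetrically against a phosphate standard curve.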

HCT116 MTAP−/− = test: Inhibition of cellular proliferation (Cell Titer Glo), HCT116 MTAP−/−; format: cell-based, human; conditions: Homo sapiens, HCT-116, 96 h, 4 days, IC50 score, read-out: 4 Day Relative Growth Inhibition (MTAP −/−; Example 277)
Outline: as §1

[1] = tested on: SAM in HCT116 human colon carcinoma cell line engineered to delete the MTAP gene (MTAP −/−); test: Cellular assay of target engagement (SAM) by LC-MS/MS; format: cell-based; conditions: Homo sapiens, HCT-116, 72 h, IC50 score, read-out: Cell 72 h SAM Inhibition (MTAP −/−; Example 276)
Outline: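 MTAP-deleted HCT116 cells were dosed 24 h after plating with a 10-point 3-fold compound series in DMSO, then incubated 72 h at 37 °C/5% CO2. Cells were extracted in cold 80% methanol with acetic acid and d3-SAM internal standard. SAM was quantified by LC-MS/MS MRM (m/z 399.2→250.1).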

T1 sequence (P31153 whole entry): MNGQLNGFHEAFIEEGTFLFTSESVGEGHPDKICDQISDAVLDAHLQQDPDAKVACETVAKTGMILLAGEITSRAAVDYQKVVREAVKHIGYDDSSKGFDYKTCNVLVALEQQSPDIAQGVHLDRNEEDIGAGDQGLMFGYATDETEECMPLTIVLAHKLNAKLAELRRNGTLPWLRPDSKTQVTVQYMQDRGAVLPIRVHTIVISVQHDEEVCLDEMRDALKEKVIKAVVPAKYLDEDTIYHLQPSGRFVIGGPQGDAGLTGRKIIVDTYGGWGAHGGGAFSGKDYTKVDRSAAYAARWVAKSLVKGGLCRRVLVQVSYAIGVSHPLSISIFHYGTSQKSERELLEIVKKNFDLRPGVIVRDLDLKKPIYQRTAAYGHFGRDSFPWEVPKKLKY

Structure (SMILES) | IC50 (HCT116 MTAP+/+) [nM] | IC50 (MAT2A homodimer) [nM] | IC50 (HCT116 MTAP−/−) [nM] | IC50 [1] [nM]
Cn1cc2cc(-n3cc4ccc(OCC(F)(F)F)nc4c(-c4ccc(Cl)cc4)c3=O)ccc2n1 [Example 254, 8-(4-chlorophenyl)-6-(2-methyl-2H-indazol-5-yl)-2-(2,2,2-trifluoroethoxy)-1,6-naphthyridin-7(6H)-one] | > 10000 | < 100 | < 100 | < 100
Cn1cc2cc(-n3cc4ncc(OCC(F)F)nc4c(-c4ccc(OC(F)(F)F)nc4)c3=O)ccc2n1 [Example 143-A] | 100 to 10000 | < 100 | < 100 | < 100
Cn1cc2cc(-n3cc4cnc(NCC(F)(F)F)nc4c(-c4ccc(OC(F)F)cc4)c3=O)ccc2n1 [Example 148, 8-(4-(difluoromethoxy)phenyl)-6-(2-methyl-2H-indazol-5-yl)-2-((2,2,2-trifluoroethyl)amino)pyrido[4,3-d]pyrimidin-7(6H)-one] | 100 to 10000 | < 100 | < 100 | < 100
Cn1cc2cc(-n3cc4cnc(NCC(F)(F)F)nc4c(-c4ccc(C(F)(F)F)cc4)c3=O)ccc2n1 [Example 161, 6-(2-methyl-2H-indazol-5-yl)-2-((2,2,2-trifluoroethyl)amino)-8-(4-(trifluoromethyl)phenyl)pyrido[4,3-d]pyrimidin-7(6H)-one] | > 10000 | < 100 | < 100 | < 100
Cn1cnc2ccc(-n3cc4cnc(NCC(F)(F)F)nc4c(-c4ccc(Cl)cc4)c3=O)cc21 [Example 135, 8-(4-chlorophenyl)-6-(1-methyl-1H-benzo[d]imidazol-6-yl)-2-(2,2,2-trifluoroethylamino)pyrido[4,3-d]pyrimidin-7(6H)-one] | 100 to 10000 | < 100 | < 100 | < 100
Cn1cc2cc(-n3cc4ccc(OCC(F)(F)F)nc4c(-c4ccc(C(F)F)nc4)c3=O)ccc2n1 [Example 118-A] | 100 to 10000 | < 100 | < 100 | < 100
COc1ccc(-c2c(=O)n(-c3ccc4ncccc4c3)cc3cnc(NCC(F)(F)F)nc23)cc1 [Example 181, 8-(4-methoxyphenyl)-6-(quinolin-6-yl)-2-((2,2,2-trifluoroethyl)amino)pyrido[4,3-d]pyrimidin-7(6H)-one] | > 10000 | < 100 | 100 to 10000 | < 100
CCOc1ccc2cn(-c3ccc(OC)cc3)c(=O)c(-c3ccc(OC(F)F)cc3)c2n1 [Example 250, 8-(4-(difluoromethoxy)phenyl)-2-ethoxy-6-(4-methoxyphenyl)-1,6-naphthyridin-7(6H)-one] | 100 to 10000 | < 100 | < 100 | < 100
COc1ccc(-c2c(=O)n(-c3ccc(OC)cc3)cc3cnc(NCC(F)(F)F)nc23)cc1 [Example 200, 6,8-bis(4-methoxyphenyl)-2-(2,2,2-trifluoroethylamino)pyrido[4,3-d]pyrimidin-7(6H)-one] | 100 to 10000 | < 100 | 100 to 10000 | 100 to 1000
Cn1cc(-n2cc3cnc(NCC(F)(F)F)nc3c(-c3ccc(OC(F)F)cc3)c2=O)ccc1=O [Example 155, 8-(4-(difluoromethoxy)phenyl)-6-(1-methyl-6-oxo-1,6-dihydropyridin-3-yl)-2-((2,2,2-trifluoroethyl)amino)pyrido[4,3-d]pyrimidin-7(6H)-one] | 100 to 10000 | < 100 | 100 to 10000 | 100 to 1000
